In patent US9980976B2, “Use of REDD1 inhibitors to dissociate therapeutic and adverse atrophogenic effects of glucocorticoid receptor agonists” (Northwestern University, priority 2015, dated 2018):

Columns and labels:
[1] = system: LC3; experiment: Autophagy in mouse epidermis (LC3-I to LC3-II conversion, Beclin-1); assay type: in vivo; conditions: FA-treated mouse skin
Protocol: In accordance, we observed in FA-treated skin the conversion of light chain 3 (LC3) from its free form (LC3-I) to a membrane-bound state (LC3-II), a key step that initiates autophagy in mammalian cells (Klionsky et al, 2012). LC3-I to LC3-II conversion reached its maximum 8 h after FA treatment and paralleled with the increase of another autophagy marker Beclin-1, highest REDD1 expression and strongest repression of mTOR activity (FIGS. 2C, D).
The whole-cell protein extracts were prepared using RIPA buffer with protease and phosphatase inhibitor cocktails (Thermo Scientific, Thermo Fisher Scientific Inc., Waltham, Mass., USA), resolved by SDS-PAGE on 4-20% gels and transferred to Odyssey nitrocellulose membranes (LI-COR Biosciences, Lincoln, Neb., USA). Membranes were blocked with Odyssey Blocking Buffer and incubated with primary antibodies overnight at 4° C., followed by IRDye® secondary antibodies (LI-COR Biosciences). LI-COR Odyssey Imager was used for the band visualization. Equal loading and adequate transfer to the membranes were verified by staining with Ponceau S (Sigma-Aldrich) and with anti-GAPDH (Sigma-Aldrich) antibody. We used Abs against: REDD1 (Proteintech Group, Inc., Chicago, Ill.), LC3B, phospho-rpS6Ser240/244, phospho-4E-BP1Thr37/46, phospho-GRSer211 (Cell Signaling Technology, Inc.), and GR (H-300 or M-20, Santa Cruz Biotechnology, Inc.).

[2] = system: pri-miR-221; experiment: Q-PCR analysis of primary miR-221 in mouse epidermis; assay type: in vivo; conditions: 24 h after single FA application and after the first week of chronic treatment
Protocol: FIG. 9. Inverse correlation between pri-miR-221 and REDD1 expression during glucocorticoid treatment. B6D2 mice were treated with FA topically as described in Materials and Methods, epidermis was harvested at indicated time points. A. Western blot analysis. B. Q-PCR analysis of primary miR-221. Data are expressed as the fold change (mean±SD) with respect to the controls (unpaired two-tailed t-test, n=3).
Total RNA from murine epidermis, whole human skin, and cell cultures was isolated with RiboPure kit (Ambion, Life Technologies, Grand Island, N.Y., USA). Total RNA from murine s.c. adipose was isolated with RNeasy Lipid Tissue Kit (Qiagen, Valencia, Calif., USA). The RNA samples were treated with TURBOT™ DNase (Ambion). The gene expression was assessed using semi-quantitative two-step RT-PCR and quantitative Q-PCR. Reverse transcription was performed using 1 μg RNA, random hexamers, and M-MLV reverse transcriptase (Invitrogen, Life Technologies), according to manufacturer instructions. The gene-specific primers were designed with NCBI Primer-BLAST (data not shown, see Baida et al., EMBO, 2015, at Supplementary Table S4). […] For semi-quantitative PCRs, Taq DNA polymerase (Promega) was used, and PCR products were separated on 1.5% agarose gel and visualized using automated imaging system (Bio-Rad, Hercules, Calif., USA). […]

[3] = system: NF-kB dependent genes cyclins D1 and D2, MMP1 and CD74; experiment: Q-PCR analysis of NF-kB dependent genes in HaCaT and CEM cells; assay type: cell-based, human; conditions: single treatments, 1 uM
Protocol: FIG. 14. Rapamycin enhances GR transrepression. A, B. Q-PCR analysis of MMP13 and CD74 expression in HaCaT cells (A) and cyclin D1 (CCND1) and cyclin D2 (CCND2) expression in CEM cells (B). Cells were pretreated with solvent or Rapa (1 uM)×6 hrs and treated with solvent (Control) or FA (1 uM) for 24 h. A, B. Q-PCR results were normalized to the expression of the housekeeping Rp127 gene, and presented as fold of change compared to control cells. The means+/−SD calculated for three individual RNA samples/condition. a—Statistically significant difference (P<0.05) compared to control; b—Statistically significant differences (P<0.05) compared to FA treatment. C. […] The means+SD were calculated for three individual wells/group in one representative experiment (out of three experiments). a—Statistically significant differences (P<0.05) in comparison to vehicle treatment; b—Statistically significant differences (P<0.05) in comparison to FA treatment.
Total RNA from murine epidermis, whole human skin, and cell cultures was isolated with RiboPure kit (Ambion, Life Technologies, Grand Island, N.Y., USA). […] The gene expression was assessed using semi-quantitative two-step RT-PCR and quantitative Q-PCR. […] For semi-quantitative PCRs, Taq DNA polymerase (Promega) was used, and PCR products were separated on 1.5% agarose gel and visualized using automated imaging system (Bio-Rad, Hercules, Calif., USA). […]

[4] = system: GR; experiment: GR nuclear translocation (immunofluorescence in HaCaT, Western blot of nuclear extracts in CEM); assay type: cell-based, human; conditions: HaCaT cells, 1 uM FA
Protocol: FIG. 15. Rapamycin inhibits GR nuclear translocation and phosphorylation. A. GR nuclear translocation in HaCaT cells was determined by immunofluorescence as described in Materials and Methods. Cells on coverslips were pretreated with solvent (Control) or Rapamycin (1 uM×6 h) and treated with 1 uM FA for indicated time. B. GR nuclear translocation in CEM cells was determined by Western blot analysis of nuclear protein extracts. Membranes were probed with anti-HDAC-1 antibodies to verify equal protein loading and transfer. C, D. GR phosphorylation in HaCaT (C) and CEM (D) cells was determined by Western blot analysis of whole cell lysates. Membranes were probed with anti-GAPDH antibodies to verify equal protein loading and transfer.
GR nuclear translocation was determined by immunofluorescence in HaCaT cells. Cells infected with pGIPZ and shREDD1 lentiviruses were selected with puromycin, seeded on coverslips. After the treatments, cells were fixed with 2% formaldehyde and permeabilized with acetone:methanol (1:1 v/v). After blocking, cells were incubated with primary rabbit anti-GR antibody (H-300, Santa Cruz Biotechnology, Santa Cruz, Calif., USA) followed by secondary anti-rabbit FITC-conjugated antibody (Jackson Immuno Research). Cell nuclei were counterstained with DAPI (Invitrogen, Life Technologies, Grand Island, N.Y., USA). […]

## CC1(C)O[C@@H]2C[C@H]3[C@@H]4C[C@H](F)C5=CC(=O)C=C[C@]5(C)[C@@]4(F)[C@@H](O)C[C@]3(C)[C@]2(C(=O)CO)O1 [FA, fluocinolone acetonide]
[1]
  time of maximum LC3-I to LC3-II conversion after treatment: 8 h
[2]
  pri-miR-221 level: significantly increased
[3]
  basal expression of NF-kB dependent genes cyclins D1 and D2, MMP1 and CD74: inhibited
[4]
  time GR remained in the nucleus: 2 to 24 h
  time to GR nuclear import: 10 min
